Source: BindingDB's records for doi:10.1016/j.bioorg.2014.11.006 (Comsats Institute of Information Technology, 2015)

Target: Alpha-glucosidase MAL12 (Saccharomyces cerevisiae (strain ATCC 204508 / S288c), UniProt P53341)
Test: Alpha-glucosidase Inhibition Assay
Conditions: 37 °C
Protocol: A 100 µL assay mixture containing 70 µL phosphate buffer saline (50 mM at pH 6.8), 10 µL corresponding test compounds dissolved in methanol/DMSO (0.5 mM) and 10 µL (0.057 units) α-glucosidase enzyme were mixed, pre-incubated for 10 min at 37C and the abosrbance was recorded at 400 nm. The reaction was initiated by the addition of 10 µL p-nitrophenyl-α-D-glucopyranoside (substrate, 0.5 mM/well).

Sequence of Alpha-glucosidase MAL12 (P53341 whole entry): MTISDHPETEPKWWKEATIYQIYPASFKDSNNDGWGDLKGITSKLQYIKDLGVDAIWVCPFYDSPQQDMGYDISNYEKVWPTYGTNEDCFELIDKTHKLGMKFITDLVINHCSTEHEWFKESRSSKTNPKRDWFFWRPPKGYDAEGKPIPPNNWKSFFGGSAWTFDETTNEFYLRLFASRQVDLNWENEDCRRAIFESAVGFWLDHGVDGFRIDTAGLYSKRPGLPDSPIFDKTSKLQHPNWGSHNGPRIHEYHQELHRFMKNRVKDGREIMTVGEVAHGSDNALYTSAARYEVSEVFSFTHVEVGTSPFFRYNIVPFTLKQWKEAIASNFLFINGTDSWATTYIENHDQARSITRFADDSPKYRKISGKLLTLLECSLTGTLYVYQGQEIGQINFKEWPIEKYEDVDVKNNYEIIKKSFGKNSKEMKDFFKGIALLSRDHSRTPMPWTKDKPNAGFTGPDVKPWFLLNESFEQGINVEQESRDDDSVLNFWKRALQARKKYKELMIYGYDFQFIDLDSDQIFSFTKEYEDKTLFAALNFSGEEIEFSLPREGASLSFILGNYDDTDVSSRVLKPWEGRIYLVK

Structure (SMILES) | IC50
COc1cccc(-c2nc(-c3ccccc3)c(-c3ccccc3)[nH]2)c1 | 359 µM
Oc1ccccc1-c1nc(-c2ccccc2)c(-c2ccccc2)[nH]1 | 74.3 µM
COc1cccc(-c2nc(-c3ccccc3)c(-c3ccccc3)[nH]2)c1O [2-(4,5-Diphenyl-1H-imidazol-2-yl)-6-methoxyphenol (3g)] | 107 µM

The remaining lines, values ahead:

IC50 | Structure (SMILES)
458 µM | Clc1ccc(-c2nc(-c3ccccc3)c(-c3ccccc3)[nH]2)cc1
97.1 µM | Oc1ccc(-c2nc(-c3ccccc3)c(-c3ccccc3)[nH]2)cc1 [SR-01000511510-2]
